row,SMILES,melting point [°C]
1,Cc1nc2c(Cl)c(NC(=O)Cc3ccc(Cl)cc3)ccc2s1,227 to 229
2,CCOC(=O)CC(C#N)(CC(=O)OCC)c1ccc(OC)cc1,65 to 75
3,COCNc1c(C#N)cnn1-c1ccc(Cl)c(Cl)c1Cl,129 to 130
4,CC(C)NC(=S)n1ccc2cc(Cl)ccc21,135
5,CN1C(=O)N(c2cc(Cl)cc(Cl)c2)C(=O)/C1=C\c1ccc(C#N)cc1,239 to 241
6,C=Cc1ccc(-c2nc(C)c3c(n2)sc2c(OCC)nc(N4CCNCC4)nc23)cc1,165 to 166
7,CCOc1ccc(-c2nc(-c3cc(C(=O)OC)c4oc(C)cc4c3)cs2)cc1OCC,144 to 145
8,Cc1nc2ccsc2c(=O)n1-c1ccccc1Cl,118 to 121
9,[O-][N+]1=C(c2ccco2)c2cc(Cl)ccc2N(CCCl)C(CCl)C1 (stereo not given),158 to 159

# Further lines, results first:
row,melting point [°C],SMILES
1,105 to 115,N=C(Nc1cc(Cl)cc(NC(=O)/C=C/c2ccccc2Cl)c1)c1ccccc1
2,85 to 88,Nc1ccccc1NCCCCCCCCCCCCNc1ccccc1N
3,152 to 154,CC(=O)Nc1ccc(-c2ccoc2)cc1[N+](=O)[O-]
4,150,O[C@H]1COC(c2ccccc2)=N[C@@H]1c1ccccc1 (racemic)
5,137 to 139,c1ccc(C(OC2CCN(c3ccc4ncnn4n3)CC2)c2ccccc2)cc1
6,130 to 132,C=CCON=C(C(=O)OCC)c1csc(NC(c2ccccc2)(c2ccccc2)c2ccccc2)n1
7,91 to 93,CCOC(=O)C=C1c2ccccc2C=C(OC)c2sccc21
8,190,NC(=O)N(O)CC(=O)Nc1ccc(Oc2ccccc2)cc1
9,161 to 167,Cc1c(-c2ccc(OC3CCCC3)cc2)[nH]c2ccc(OCc3ccccc3)cc12
10,118,C/C(=N\O)c1cccc(NC(=O)NCC(=O)N2[C@@H](C(=O)OC(C)(C)C)CC[C@H]2c2ccccc2)c1 (racemic)
11,90 to 93,CCOCc1cnc2c(N)cccc2c1Cl
